Assay: Herbal composition/SNAC oral rat pharmacokinetic (PK) study (Example 5)
Type: in vivo
Details: rats; for increase in AUC0-Tlast / increase in Cmax: oral, 50 mg/kg cannabis extract + 500 mg/kg SNAC; for time to reach the mean maximum plasma concentration (Tmax): single oral gavage
Method: Example 5. Summary of an herbal composition/SNAC oral rat pharmacokinetic (PK) study.
Methods. Animals were dosed on Day 1 and a series of blood samples were collected over a period of 4 hours post dose for pharmacokinetic evaluation. Animals were euthanized following collection of their last blood sample.

Row | Compound | increase in AUC0-Tlast [fold] | increase in Cmax [fold] | time to reach the mean maximum plasma concentration (Tmax) (high dose group (50 mg extract/kg + 500 mg SNAC/kg)) [hours post dose] | time to reach the mean maximum plasma concentration (Tmax) (low and mid dose groups (25 mg extract/kg + 250 or 500 mg SNAC/kg)) [hour post dose]
1 | C=C(C)[C@@H]1CCC(C)=C[C@H]1c1c(O)cc(CCCCC)cc1O [CBD] | 22.1 | 14.2 |  | 
2 | CCCCCc1cc(O)c2c(c1)OC(C)(C)[C@@H]1CCC(C)=C[C@@H]21 [THC] | 6.3 | 6.9 | 2 | 1
